We go through 27 compounds from patent US20100041669A1, “4-(HETEROCYCLYL)ALKYL-N-(ARYLSULFONYL)INDOLE COMPOUNDS AND THEIR USE AS 5-HT6 LIGANDS” (priority 2007, published 2010).

The structures appear in SMILES notation. Counter-ions that a name gives are not always drawn.

The target of one assay is T1, human 5-HT6 receptor (Homo sapiens, UniProt P50406).
T1 construct: expressed in transfected cells; host or cells: HEK293
T1 sequence (P50406 whole entry): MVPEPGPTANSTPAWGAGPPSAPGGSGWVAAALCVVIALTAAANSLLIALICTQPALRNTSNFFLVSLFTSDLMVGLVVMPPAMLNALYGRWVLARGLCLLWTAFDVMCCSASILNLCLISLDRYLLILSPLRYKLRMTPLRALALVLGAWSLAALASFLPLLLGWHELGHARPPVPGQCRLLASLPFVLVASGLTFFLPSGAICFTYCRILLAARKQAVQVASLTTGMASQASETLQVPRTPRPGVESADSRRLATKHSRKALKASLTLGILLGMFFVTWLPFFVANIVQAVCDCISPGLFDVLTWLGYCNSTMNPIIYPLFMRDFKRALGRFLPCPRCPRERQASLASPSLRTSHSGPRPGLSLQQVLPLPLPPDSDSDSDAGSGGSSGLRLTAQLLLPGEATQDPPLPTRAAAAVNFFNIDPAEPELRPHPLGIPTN
The assay is described as follows: Binding assay for human 5-HT6 receptor ([3H]LSD radioligand). The conditions noted are these: human recombinant receptor, [3H]LSD 1.5 nM, 60 minutes at 37° C.; read-out: Radiogland binding data at 5-HT6 R (h) Ki.
Experimental: Binding Assay for Human 5-HT6 Receptor
Receptor source: Human recombinant expressed in FEK293 cells
Radioligand: [^3H]LSD (60-80 Ci/mmol)
Final ligand concentration —[1.5 nM]
Non-specific determinant: Methiothepin mesylate —[0.1 μM]
Reference compound: Methiothepin mesylate
Positive control: Methiothepin mesylate
Reactions were carried out in 50 μM TRIS-HCl (pH 7.4) containing 10 μM MgCl2, 0.5 mM EDTA for 60 minutes at 37° C. The reaction was terminated by rapid vacuum filtration onto glass fiber filters. Radioactivity trapped onto the filters was determined and compared to control values in order to ascertain any interactions of test compound(s) with the cloned serotonin 5-HT6 binding site.
What is called Ki is a dissociation constant, usually derived from enzyme kinetics or from competition with a known ligand. Regarding `CN1CCN(Cc2cccc3c2c(Br)cn3S(=O)(=O)c2ccc(F)cc2)CC1` [Compound 22, 3-Bromo-1-(4-fluorobenzenesulfonyl)-4-(4-methylpiperazin-1-ylmethyl)-1H-indole], the Ki is 122 nM. Consider `CC(C)c1ccc(S(=O)(=O)n2ccc3c(CN4CCN(C)CC4)cccc32)cc1` [Compound 4, 1-[4-(1-Methylethyl)benzenesulfonyl]-4-(4-methylpiperazin-1-ylmethyl)-1H-indole], for which the inhibitory constant (Ki) came to 11.1 nM. For the compound `O=S(=O)(c1ccccc1)n1ccc2c(CN3CCNCC3)cccc21` [Compound 37, 1-Benzenesulfonyl-4-(piperazin-1-ylmethyl)-1H-indole dihydrochloride], the Ki stood at 7.84 nM. Take `CN1CCN(Cc2cccc3c2ccn3S(=O)(=O)c2cccc3ccccc23)CC1` [Compound 39, 1-Naphthylsulfonyl-4-(4-methylpiperazin-1-ylmethyl)-1H-indole]: the inhibition constant Ki was 4.82 nM. Still for that read-out and setting: the same measure for `COc1ccc(S(=O)(=O)n2ccc3c(CN4CCN(C)CC4)cccc32)c(Br)c1` [Compound 3, 1-(2-Bromo-4-methoxybenzenesulfonyl)-4-(4-methylpiperazin-1-ylmethyl)-1H-indole]: 8.58 nM; for `CN1CCN(Cc2cccc3c2ccn3S(=O)(=O)c2ccccc2Br)CC1` [Compound 6, 1-(2-Bromobenzenesulfonyl)-4-(4-methylpiperazin-1-ylmethyl)-1H-indole]: 1.43 nM. For `CN1CCN(Cc2cccc3c2c(Cl)cn3S(=O)(=O)c2ccccc2Br)CC1` [Compound 30, 3-Chloro-1-(2-bromobenzenesulfonyl)-4-(4-methylpiperazin-1-ylmethyl)-1H-indole], the inhibitory constant (Ki) worked out at 90.7 nM. On to `CN1CCN(Cc2cccc3c2ccn3S(=O)(=O)c2ccc(Br)cc2)CC1` [Compound 2, 1-(4-Bromobenzenesulfonyl)-4-(4-methylpiperazin-1-ylmethyl)-1H-indole], for which the Ki was 23.4 nM. Regarding `CN1CCN(Cc2cccc3c2c(Cl)cn3S(=O)(=O)c2ccccc2)CC1` [Compound 27, 3-Chloro-1-benzenesulfonyl-4-(4-methylpiperazin-1-ylmethyl)-1H-indole], the Ki amounted to 53.6 nM. In the case of `CN1CCN(Cc2cccc3c2ccn3S(=O)(=O)c2ccc(F)cc2)CC1` [Compound 7, 1-(4-Fluorobenzenesulfonyl)-4-(4-methylpiperazin-1-ylmethyl)-1H-indole], the Ki stood at 9.89 nM. Take `Cc1ccc(S(=O)(=O)n2ccc3c(CN4CCNCC4)cccc32)cc1` [Compound 38, 1-(4-Methylbenzenesulfonyl-4-(piperazin-1-ylmethyl)-1H-indoledihydrochloride]: the Ki came out at 10.7 nM.

Take `O=S(=O)(c1ccccc1Br)n1ccc2c(CN3CCNCC3)cccc21` [Compound 36, 1-(2-Bromobenzenesulfonyl)-4-(piperazin-1-ylmethyl)-1H-indole dihydrochloride]: the inhibitory constant (Ki) is 0.94 nM. As for `Cc1ccc(S(=O)(=O)n2cc(Cl)c3c(CN4CCN(C)CC4)cccc32)cc1` [Compound 29, 3-Chloro-1-(4-methylbenzenesulfonyl)-4-(4-methylpiperazin-1-ylmethyl)-1H-indole], the Ki was found to be 222 nM. Turning to `CN1CCN(Cc2cccc3c2c(Br)cn3S(=O)(=O)c2cccc(Cl)c2)CC1` [Compound 24, 3-Bromo-1-(3-chlorobenzenesulfonyl)-4-(4-methylpiperazin-1-ylmethyl)-1H-indole], the Ki was 75.3 nM. Consider `CN1CCN(Cc2cccc3c2c(Br)cn3S(=O)(=O)c2ccccc2)CC1` [Compound 18, 1-Benzenesulfonyl-3-bromo-4-(4-methylpiperazin-1-ylmethyl)-1H-indole], for which the Ki came out at 30.2 nM.

For the compound `Cc1ccc(S(=O)(=O)n2ccc3c(CN4CCN(C)CC4)cccc32)cc1` [Compound 5, 1-(4-Methylbenzenesulfonyl)-4-(4-methylpiperazin-1-ylmethyl)-1H-indole], the Ki is 7.92 nM. For the compound `CC(C)c1ccc(S(=O)(=O)n2cc(Br)c3c(CN4CCN(C)CC4)cccc32)cc1` [Compound 20, 3-Bromo-1-[4-(1-Methylethyl)benzenesulfonyl]-4-(4-methylpiperazin-1-ylmethyl)-1H-indole], the Ki stood at 278 nM. Regarding `CN1CCN(Cc2cccc3c2c(Br)cn3S(=O)(=O)c2cccc3ccccc23)CC1` [Compound 25, 3-Bromo-1-(1-naphthylsulfonyl)-4-(4-methylpiperazin-1-ylmethyl)-1H-indole], the Ki stood at 97.6 nM. With `CN1CCN(Cc2cccc3c2ccn3S(=O)(=O)c2cccc(Cl)c2)CC1` [Compound 41, 1-(3-chlorobenzenesulfonyl)-4-(4-methylpiperazin-1-ylmethyl)-1H-indole], the Ki worked out at 13.1 nM.

Consider `CN1CCN(Cc2cccc3c2ccn3S(=O)(=O)c2ccccc2)CC1` [Compound 1, 1-Benzenesulfonyl-4-(4-methylpiperazin-1-ylmethyl)-1H-indole], for which the Ki came to 6.51 nM. On to `CN1CCN(Cc2cccc3c2c(Cl)cn3S(=O)(=O)c2cccc(Cl)c2)CC1` [Compound 33, 3-Chloro-1-(3-chlorobenzenesulfonyl)-4-(4-methylpiperazin-1-ylmethyl)-1H-indole], for which the Ki was found to be 27.1 nM. In the case of `CN1CCN(Cc2cccc3c2c(Cl)cn3S(=O)(=O)c2cccc3ccccc23)CC1` [Compound 34, 3-Chloro-1-(1-naphthylsulfonyl)-4-(4-methylpiperazin-1-ylmethyl)-1H-indole], the inhibition constant Ki turned out to be 165 nM. Turning to `CC(C)c1ccc(S(=O)(=O)n2cc(Cl)c3c(CN4CCN(C)CC4)cccc32)cc1` [Compound 28, 3-Chloro-1-[4-(1-methylethyl)benzenesulfonyl]-4-(4-methylpiperazin-1-ylmethyl)-1H-indole], the Ki worked out at 99.7 nM. Regarding `COc1ccc(S(=O)(=O)n2ccc3c(CN4CCN(C)CC4)cccc32)cc1` [Compound 8, 1-(4-Methoxybenzenesulfonyl)-4-(4-methylpiperazin-1-ylmethyl)-1H-indole], the Ki was determined as 29.1 nM.

The test system of another assay is 5-HT6 receptor.
Test: not given
The conditions noted are these: literature; cited from earlier work.
Regarding `CN(C)CCC=C1c2ccccc2CCc2ccccc21` [amitriptyline], the “affinity for the 5-HT6 receptor” value was “high affinity”. In the case of `CN1CCN2c3ccccc3Cc3ccccc3C2C1` (stereo not drawn) [mianserin], the “affinity for the 5-HT6 receptor” value is “high affinity”.

Tested on in a further assay: not given
Test: not given
The conditions noted are these: Pouzet et al. 2002; cited from earlier work.
On to `COc1ccc(NS(=O)(=O)c2sc3ccc(Cl)cc3c2C)cc1N1CCNCC1` [SB-271046, 5-Chloro-N-(4-methoxy-3-piperazin-1-ylphenyl)-3-methyl-2-benzothiophenesulfonamide], for which the “activity in animal tests related to positive or negative symptoms of schizophrenia” value is “inactive”.
